Measured values: ChEMBL document CHEMBL5291721, “A preclinical secondary pharmacology resource illuminates target-adverse drug reaction associations of marketed drugs” (Nat Commun, 2023)

Experiments:
[1] = molecular target: Neurotensin receptor type 1 (Homo sapiens, UniProt P30989)
Histamine H2 receptor = Histamine H2 receptor (Homo sapiens, UniProt P25021)
D(4) dopamine receptor = molecular target: T1, D(4) dopamine receptor (Homo sapiens, UniProt P21917)
T1 sequence (P21917 whole entry): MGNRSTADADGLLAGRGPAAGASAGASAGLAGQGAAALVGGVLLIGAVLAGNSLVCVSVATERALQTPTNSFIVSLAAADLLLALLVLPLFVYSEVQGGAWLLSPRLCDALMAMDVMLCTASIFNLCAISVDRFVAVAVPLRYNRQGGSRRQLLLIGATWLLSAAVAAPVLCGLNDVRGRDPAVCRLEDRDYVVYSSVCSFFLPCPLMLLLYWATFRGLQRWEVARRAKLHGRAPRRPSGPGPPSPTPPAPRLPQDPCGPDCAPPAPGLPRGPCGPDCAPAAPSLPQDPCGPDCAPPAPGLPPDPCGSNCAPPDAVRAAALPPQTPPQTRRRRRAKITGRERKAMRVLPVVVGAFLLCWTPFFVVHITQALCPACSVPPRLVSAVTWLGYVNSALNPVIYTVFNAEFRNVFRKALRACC

[2] = molecular target: T2, Alpha-1A adrenergic receptor (Homo sapiens, UniProt P35348)
T2 sequence (P35348 whole entry): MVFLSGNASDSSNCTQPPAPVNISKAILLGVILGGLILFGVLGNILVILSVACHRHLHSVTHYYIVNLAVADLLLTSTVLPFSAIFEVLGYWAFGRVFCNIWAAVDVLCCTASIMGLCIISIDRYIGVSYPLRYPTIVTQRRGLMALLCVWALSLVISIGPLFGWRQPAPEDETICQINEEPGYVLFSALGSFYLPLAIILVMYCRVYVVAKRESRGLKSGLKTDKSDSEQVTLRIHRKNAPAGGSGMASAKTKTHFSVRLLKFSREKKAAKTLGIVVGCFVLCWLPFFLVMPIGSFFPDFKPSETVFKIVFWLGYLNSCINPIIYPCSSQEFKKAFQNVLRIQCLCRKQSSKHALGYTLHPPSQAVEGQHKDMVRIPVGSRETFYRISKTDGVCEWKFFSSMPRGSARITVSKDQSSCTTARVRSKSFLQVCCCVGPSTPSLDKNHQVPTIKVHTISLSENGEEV

Histamine H1 receptor = Histamine H1 receptor (Homo sapiens, UniProt P35367); format: functional, cell-based
Sequence of Histamine H1 receptor (P35367 whole entry): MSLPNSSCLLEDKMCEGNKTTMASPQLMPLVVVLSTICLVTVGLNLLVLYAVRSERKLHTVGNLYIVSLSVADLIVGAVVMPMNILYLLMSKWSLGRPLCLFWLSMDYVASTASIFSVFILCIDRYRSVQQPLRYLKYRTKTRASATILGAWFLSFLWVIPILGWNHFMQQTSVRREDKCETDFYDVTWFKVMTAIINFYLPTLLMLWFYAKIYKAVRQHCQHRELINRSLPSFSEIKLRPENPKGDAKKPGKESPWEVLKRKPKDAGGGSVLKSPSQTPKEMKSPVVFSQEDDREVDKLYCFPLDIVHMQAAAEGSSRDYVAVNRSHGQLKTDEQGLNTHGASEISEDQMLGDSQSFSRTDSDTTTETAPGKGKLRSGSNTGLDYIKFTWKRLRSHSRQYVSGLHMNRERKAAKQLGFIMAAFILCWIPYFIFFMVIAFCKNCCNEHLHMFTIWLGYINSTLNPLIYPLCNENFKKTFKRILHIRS

[3] = molecular target: T3, 5-hydroxytryptamine receptor 1A (Homo sapiens, UniProt P08908)
T3 sequence (P08908 whole entry): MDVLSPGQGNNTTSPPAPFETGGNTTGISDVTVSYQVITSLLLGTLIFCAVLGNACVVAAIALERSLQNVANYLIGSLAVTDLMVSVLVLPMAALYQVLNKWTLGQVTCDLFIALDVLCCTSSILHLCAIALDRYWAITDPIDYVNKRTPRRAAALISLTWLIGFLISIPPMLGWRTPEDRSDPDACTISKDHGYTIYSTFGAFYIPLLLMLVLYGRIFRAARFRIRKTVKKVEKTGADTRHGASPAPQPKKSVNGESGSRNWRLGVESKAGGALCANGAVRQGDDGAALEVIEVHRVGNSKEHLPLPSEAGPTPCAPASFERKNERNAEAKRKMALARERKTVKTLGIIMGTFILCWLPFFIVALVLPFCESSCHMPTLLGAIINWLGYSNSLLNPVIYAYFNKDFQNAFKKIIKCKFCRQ

[4] = molecular target: T4, Endothelin receptor type B (Homo sapiens, UniProt P24530)
T4 sequence (P24530 whole entry): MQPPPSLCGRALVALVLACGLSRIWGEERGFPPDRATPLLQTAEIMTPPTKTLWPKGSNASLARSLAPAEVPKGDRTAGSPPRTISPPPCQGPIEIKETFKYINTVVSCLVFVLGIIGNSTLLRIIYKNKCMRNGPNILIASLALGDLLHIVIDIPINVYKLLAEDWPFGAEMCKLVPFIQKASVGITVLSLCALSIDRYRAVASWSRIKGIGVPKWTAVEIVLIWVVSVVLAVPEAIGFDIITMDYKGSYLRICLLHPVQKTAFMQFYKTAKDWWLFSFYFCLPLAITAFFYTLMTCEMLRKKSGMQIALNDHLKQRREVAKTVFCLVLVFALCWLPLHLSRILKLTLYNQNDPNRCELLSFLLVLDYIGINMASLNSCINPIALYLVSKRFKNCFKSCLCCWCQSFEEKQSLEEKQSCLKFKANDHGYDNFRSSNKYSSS

[5] = molecular target: T2, Alpha-1A adrenergic receptor; remark: listed apart in the source
[6] = molecular target: T5, Peroxisome proliferator-activated receptor gamma (Homo sapiens, UniProt P37231); format: functional
T5 sequence (P37231 whole entry): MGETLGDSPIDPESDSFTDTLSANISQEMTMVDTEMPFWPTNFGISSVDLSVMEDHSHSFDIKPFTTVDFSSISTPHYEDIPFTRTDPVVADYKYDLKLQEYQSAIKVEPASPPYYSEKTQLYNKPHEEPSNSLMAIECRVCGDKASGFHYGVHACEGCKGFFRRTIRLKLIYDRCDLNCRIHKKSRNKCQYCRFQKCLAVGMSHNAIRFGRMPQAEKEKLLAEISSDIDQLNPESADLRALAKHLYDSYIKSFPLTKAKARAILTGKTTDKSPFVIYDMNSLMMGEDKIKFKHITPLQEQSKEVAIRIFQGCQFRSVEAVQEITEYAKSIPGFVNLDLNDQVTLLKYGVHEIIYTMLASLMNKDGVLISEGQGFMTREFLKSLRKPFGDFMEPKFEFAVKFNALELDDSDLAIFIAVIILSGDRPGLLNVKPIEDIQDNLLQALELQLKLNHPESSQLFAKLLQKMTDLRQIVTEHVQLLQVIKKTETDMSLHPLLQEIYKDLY

[7] = molecular target: 5-hydroxytryptamine receptor 7 (Homo sapiens, UniProt P34969)
Sequence of 5-hydroxytryptamine receptor 7 (P34969 whole entry): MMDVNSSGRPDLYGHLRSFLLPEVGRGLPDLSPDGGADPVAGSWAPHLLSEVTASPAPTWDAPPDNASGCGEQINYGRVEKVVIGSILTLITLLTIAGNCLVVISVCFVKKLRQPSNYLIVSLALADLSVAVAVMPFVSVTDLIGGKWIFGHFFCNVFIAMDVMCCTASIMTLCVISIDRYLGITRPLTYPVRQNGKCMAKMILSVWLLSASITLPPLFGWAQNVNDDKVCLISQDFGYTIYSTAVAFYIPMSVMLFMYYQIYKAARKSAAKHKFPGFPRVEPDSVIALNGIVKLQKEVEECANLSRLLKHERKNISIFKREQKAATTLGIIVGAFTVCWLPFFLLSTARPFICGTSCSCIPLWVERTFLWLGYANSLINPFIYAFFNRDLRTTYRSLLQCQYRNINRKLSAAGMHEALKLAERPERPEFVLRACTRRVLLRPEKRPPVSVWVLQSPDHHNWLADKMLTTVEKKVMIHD
Also: assay procedure not described here.

Sequence of Neurotensin receptor type 1 (P30989 whole entry): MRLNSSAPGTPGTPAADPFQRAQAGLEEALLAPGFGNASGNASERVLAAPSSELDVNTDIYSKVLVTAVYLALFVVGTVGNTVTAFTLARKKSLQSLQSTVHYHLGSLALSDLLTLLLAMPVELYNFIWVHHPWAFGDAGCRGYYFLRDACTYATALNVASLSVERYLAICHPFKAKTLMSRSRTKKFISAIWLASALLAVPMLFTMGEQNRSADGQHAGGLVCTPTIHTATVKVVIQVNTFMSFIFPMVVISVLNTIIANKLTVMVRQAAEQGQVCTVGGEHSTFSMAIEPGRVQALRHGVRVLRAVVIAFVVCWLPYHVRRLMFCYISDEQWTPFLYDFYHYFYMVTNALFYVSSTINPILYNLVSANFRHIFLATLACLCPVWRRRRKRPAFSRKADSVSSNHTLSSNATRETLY
Sequence of Histamine H2 receptor (P25021 whole entry): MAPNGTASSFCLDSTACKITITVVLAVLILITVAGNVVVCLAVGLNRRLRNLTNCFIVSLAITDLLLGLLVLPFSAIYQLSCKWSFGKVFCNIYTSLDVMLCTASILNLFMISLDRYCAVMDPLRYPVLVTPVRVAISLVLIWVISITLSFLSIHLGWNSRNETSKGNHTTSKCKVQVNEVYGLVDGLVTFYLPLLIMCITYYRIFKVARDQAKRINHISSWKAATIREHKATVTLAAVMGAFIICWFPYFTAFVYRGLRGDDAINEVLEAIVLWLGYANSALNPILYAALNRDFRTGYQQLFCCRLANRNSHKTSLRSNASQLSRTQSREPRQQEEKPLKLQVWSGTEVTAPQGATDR

Compound: COc1ccc(C(=O)Nc2ccccc2CCC2CCCCN2C)cc1 (centres undefined) [ENCAINIDE]
- AC50 [1]: > 30 µM
- AC50 (Histamine H2 receptor): 16.2 µM
- AC50 (D(4) dopamine receptor): > 10 µM
- AC50 [2]: > 10 µM
- AC50 (Histamine H1 receptor): > 30 µM
- AC50 [3]: > 10 µM
- AC50 [4]: > 30 µM

Compound: CCOc1ccc(Cc2cc([C@@H]3O[C@H](CO)[C@@H](O)[C@H](O)[C@H]3O)ccc2Cl)cc1 [DAPAGLIFLOZIN]
- AC50 (Histamine H2 receptor): > 10 µM
- AC50 [3]: > 10 µM

Compound: Nc1ccncc1N [AMIFAMPRIDINE]
- AC50 [5]: > 30 µM

Compound: COc1ccccc1N1CCN(CC(O)COc2cccc3ccccc23)CC1 (centres undefined) [NAFTOPIDIL]
- AC50 [5]: 0.02 µM

Compound: Cc1oc(=O)oc1CN1CCN(c2cc3c(cc2F)c(=O)c(C(=O)O)c2n3C(C)S2)CC1 (centres undefined) [PRULIFLOXACIN]
- AC50 [5]: > 30 µM

Compound: CN1CCN(C2=Nc3ccccc3Sc3ccc(Cl)cc32)CC1 [CLOTHIAPINE]
- AC50 (Histamine H1 receptor): 0.63 µM

Compound: CN(C)CCc1c[nH]c2ccc(C[C@H]3COC(=O)N3)cc12 [ZOLMITRIPTAN]
- AC50 (Histamine H1 receptor): > 30 µM

Compound: O=[N+]([O-])O[C@@H]1CO[C@H]2[C@@H]1OC[C@@H]2O [ISOSORBIDE MONONITRATE]
- AC50 [1]: > 30 µM
- AC50 (Histamine H2 receptor): > 10 µM
- AC50 (D(4) dopamine receptor): > 10 µM
- AC50 [2]: > 10 µM
- AC50 [3]: > 10 µM
- AC50 [4]: > 30 µM

Compound: CC[C@H]1CN2CCc3cc(OC)c(OC)cc3[C@@H]2C[C@@H]1C[C@H]1NCCc2cc(OC)c(OC)cc21 [EMETINE]
- AC50 [5]: 2.51 µM
- AC50 [6]: > 30 µM

Compound: C=CCCCCCCCCC(=O)O [UNDECYLENIC ACID]
- AC50 [5]: > 30 µM

Compound: C=CCN1C[C@H](C(=O)N(CCCN(C)C)C(=O)NCC)C[C@@H]2c3cccc4[nH]cc(c34)C[C@H]21 [CABERGOLINE]
- AC50 [3]: 0.073 µM

Compound: CCC(CC)(CC(=O)Nc1cccc(/C=C/c2nc(C3CCC3)cs2)c1)C(=O)O
- AC50 [6]: > 30 µM

Compound: CN(C)CCC=C1c2ccccc2C=Cc2ccccc21 [CYCLOBENZAPRINE]
- AC50 [1]: > 30 µM
- AC50 [3]: 4.94 µM
- AC50 [4]: > 30 µM

Compound: CC[C@@H](C(N)=O)N1CCCC1=O
- AC50 [6]: > 30 µM

Compound: Cc1cc(C)c(NC(=O)CN(CC(=O)O)CC(=O)O)c(C)c1Br [MEBROFENIN]
- AC50 [5]: > 30 µM

Compound: CCCCCNC(=N)N/N=C/c1c[nH]c2ccc(OC)cc12 [TEGASEROD]
- AC50 [1]: > 30 µM
- AC50 (D(4) dopamine receptor): 0.657 µM
- AC50 [2]: 0.267 µM
- AC50 [3]: 0.169 µM
- AC50 [4]: > 30 µM
- AC50 [6]: > 30 µM
- AC50 [7]: 0.802 µM

Compound: CCOc1ccccc1OCC1CNCCO1 (centres undefined) [VILOXAZINE]
- AC50 [1]: > 30 µM
- AC50 (Histamine H2 receptor): > 10 µM
- AC50 (D(4) dopamine receptor): > 10 µM
- AC50 [2]: > 10 µM
- AC50 (Histamine H1 receptor): > 30 µM
- AC50 [3]: > 10 µM
- AC50 [4]: > 30 µM
- AC50 [7]: > 10 µM

Compound: O=[N+]([O-])c1cn2c(n1)OC[C@@H](OCc1ccc(OC(F)(F)F)cc1)C2 [PRETOMANID]
- AC50 [1]: > 10 µM
- AC50 (Histamine H2 receptor): > 10 µM
- AC50 [2]: > 10 µM
- AC50 [3]: > 10 µM
- AC50 [4]: > 30 µM
- AC50 [7]: > 10 µM

Compound: COc1cc2nc(N3CCN(C(=O)c4ccco4)CC3)nc(N)c2cc1OC [PRAZOSIN]
- AC50 [1]: > 30 µM
- AC50 (D(4) dopamine receptor): > 10 µM
- AC50 [4]: > 30 µM
